# Where two headings read alike, the source gives them in different places.
# Experiments:
# [1] = Non-hygroscopicity test (moisture content, Karl-Fisher titrator); assay type: physicochemical
# Method: The inventive azithromycin L-malate monohydrate was continuously exposed at 25 or 40° C. and 40 to 90% relative humidity for a period of over 15 days. The moisture contents of the inventive salt measured with a Karl-Fisher titrator at storage time 0, 3, 7 and 15 days are shown in Table 5 and FIG. 5.
# [2] = Heat stability test (remaining active azithromycin by HPLC); assay type: physicochemical; details: 60° C. and 75% relative humidity; for Amount of titrated azithromycin: sealed
# Method: The time-dependent stability at a high temperature of the inventive azithromycin L-malate monohydrate was measured and compared with that of the known azithromycin dihydrate.
# in vivo = details: beagle, dog, po, 20 mg/kg
# Method: (§1) Specifically, twelve Marshall beagle dogs (Beijing, average weight: 9.5±0.5 kg) were divided with two groups each consisting of six dogs. Each of divided dogs was fasted for 16 hours and then orally administered with a single 20 mg/kg dose of the inventive azithromycin L-malate monohydrate (test group) or azithromycin dihydrate (control group) contained in a gelatin capsule. After administration, blood samples were periodically collected, followed by separating plasma therefrom. The azithromycin samples extracted from the plasma was subjected to LC/MS/MS analysis to measure the amount of azithromycin therein and to calculate pharmacokinetic parameters.
# [3] = dog, in vivo, po, 20 mg/kg
# Method: as §1
# [4] = Hygroscopicity of acid addition salts of azithromycin after storage; assay type: physicochemical; details: after 24 hours storage at 40° C. and 75% relative humidity
# Water-solubility test = assay type: physicochemical; details: thermodynamic from solid, 25° C., based on amount of azithromycin dissolved
# Method: The azithromycin L-malate monohydrate of the present invention and azithromycin dihydrate were dissolved in deionized water and in phosphoric acid buffer solution (pH 7) to saturation, respectively. The water-solubility of each of the saturated solutions was analyzed by HPLC according to the procedure described in the US Pharmacopoeia, to determine the amount of azithromycin dissolved.
# [5] = 37° C.; cited from earlier work
# [6] = Pharmacokinetic test, azithromycin concentration in blood; details: beagle, dog, plasma, po, 20 mg/kg
# Method: as §1
# [7] = Moisture uptake of malate anhydrates exposed at 40° C. and 75% relative humidity; assay type: physicochemical; details: exposed at 40° C. and 75% relative humidity for 10 hours
# [8] = deionized water, water, read-out: Solubility, deionized water
# [9] = phosphoric acid buffer solution, aqueous buffer, phosphoric acid buffer pH 7, read-out: Solubility, buffer solution (pH 7)
compound,measurement,setting,value
"CC[C@H]1OC(=O)[C@H](C)[C@@H](O[C@H]2C[C@@](C)(OC)[C@@H](O)[C@H](C)O2)[C@H](C)[C@@H](O[C@@H]2O[C@H](C)C[C@H](N(C)C)[C@H]2O)[C@](C)(O)C[C@@H](C)CN(C)[C@H](C)[C@@H](O)[C@]1(C)O.O=C(O)C[C@H](O)C(=O)O [Azithromycin L-malate monohydrate, azithromycin L-malate monohydrate]",Hygroscopicity (in words),"[1]; 25 or 40° C., 40 to 90% relative humidity, 15 days",largely non-hygroscopic
same,Moisture content,"[1]; 40% relative humidity, 25° C., 3 days",1.78 wt %
same,Moisture content,"[1]; 40% relative humidity, 25° C., 7 days",1.75 wt %
same,Moisture content,"[1]; 40% relative humidity, 25° C., 15 days",1.73 wt %
same,Moisture content,"[1]; 40% relative humidity, 25° C., initial",1.75 wt %
same,Moisture content,"[1]; 60% relative humidity, 25° C., 3 days",1.82 wt %
same,Moisture content,"[1]; 60% relative humidity, 25° C., 7 days",1.80 wt %
same,Moisture content,"[1]; 60% relative humidity, 25° C., 15 days",1.80 wt %
same,Moisture content,"[1]; 60% relative humidity, 25° C., initial",1.75 wt %
same,Moisture content,"[1]; 75% relative humidity, 40° C., 3 days",1.80 wt %
same,Moisture content,"[1]; 75% relative humidity, 40° C., 7 days",1.82 wt %
same,Moisture content,"[1]; 75% relative humidity, 40° C., 15 days",1.85 wt %
same,Moisture content,"[1]; 75% relative humidity, 40° C., initial",1.75 wt %
same,Moisture content,"[1]; 90% relative humidity, 40° C., 3 days",1.87 wt %
same,Moisture content,"[1]; 90% relative humidity, 40° C., 7 days",1.85 wt %
same,Moisture content,"[1]; 90% relative humidity, 40° C., 15 days",1.85 wt %
same,Moisture content,"[1]; 90% relative humidity, 40° C., initial",1.75 wt %
same,Heat stability (in words),[2]; 28 days,highly stable
same,Amount of titrated azithromycin,[2]; 7 days,984.6 µg/mg
same,Amount of titrated azithromycin,[2]; 14 days,985.1 µg/mg
same,Amount of titrated azithromycin,[2]; 21 days,987.0 µg/mg
same,Amount of titrated azithromycin,[2]; 28 days,985.4 µg/mg
same,Amount of titrated azithromycin,[2]; initial,986.4 µg/mg
same,Cmax,in vivo,3780 ± 1380 ng/mL
same,Tmax,in vivo,36 ± 12 min
same,AUC(0-t),in vivo; AUC0-24,27600 ± 6860 ng·h/mL
same,AUC(0-t),in vivo; AUC0-48,37300 ± 8830 ng·h/mL
same,"AUC0-24, T group/C group",[3],1.34
same,"AUC0-48, T group/C group",[3],1.34
same,Cmax compared with azithromycin dihydrate (in words),[3],about two times higher
same,"Cmax, T group/C group",[3],1.94
same,"Tmax, T group/C group",[3],0.75
same,Salt form (hygroscopicity),[4],"Crystalline, non-hygroscopic^c)"
same,solubility,Water-solubility test; [8],393 mg/mL
same,solubility,Water-solubility test; [9],392 mg/mL
O=S(=O)(O)O [Sulfuric acid],Salt form (hygroscopicity),[4],"Amorphous, hygroscopic"
2-naphthalene sulfonic acid,Salt form (hygroscopicity),[4],"Crystalline, hygroscopic"
Fumaric acid,Salt form (hygroscopicity),[4],"Crystalline, hygroscopic"
"CC[C@H]1OC(=O)[C@H](C)[C@@H](O[C@H]2C[C@@](C)(OC)[C@@H](O)[C@H](C)O2)[C@H](C)[C@@H](O[C@@H]2O[C@H](C)C[C@H](N(C)C)[C@H]2O)[C@](C)(O)C[C@@H](C)CN(C)[C@H](C)[C@@H](O)[C@]1(C)O [Azithromycin dihydrate, 9-deoxo-9a-aza-9a-methyl-9a-homoerythromycin A, reference compound]",Heat stability (in words),[2]; 28 days,significant degradation
same,Amount of titrated azithromycin,[2]; 7 days,974.6 µg/mg
same,Amount of titrated azithromycin,[2]; 14 days,975.3 µg/mg
same,Amount of titrated azithromycin,[2]; 21 days,973.2 µg/mg
same,Amount of titrated azithromycin,[2]; 28 days,971.6 µg/mg
same,Amount of titrated azithromycin,[2]; initial,976.5 µg/mg
same,Cmax,in vivo,1950 ± 710 ng/mL
same,AUC(0-t),in vivo; AUC0-24,20600 ± 6640 ng·h/mL
same,AUC(0-t),in vivo; AUC0-48,27900 ± 9710 ng·h/mL
same,Water-solubility,[5],1.1 mg/mL
same,solubility,Water-solubility test; [8],0.1 mg/mL
same,solubility,Water-solubility test; [9],5.1 mg/mL
same,Tmax,[6],48 ± 18 min
Br [Hydrobromic acid],Salt form (hygroscopicity),[4],"Amorphous, hygroscopic"
Citric acid,Salt form (hygroscopicity),[4],"Amorphous, hygroscopic"
Cc1ccc(S(=O)(=O)O)cc1 [p-toluene sulfonic acid],Salt form (hygroscopicity),[4],"Amorphous, hygroscopic"
Azithromycin D-Malate Anhydrate,Salt form (hygroscopicity),[4],"Crystalline, hygroscopic^f)"
same,Increase of moisture content,[7],≥ 8%
"CCC1OC(=O)C(C)C(OC2CC(C)(OC)C(O)C(C)O2)C(C)C(OC2OC(C)CC(N(C)C)C2O)C(C)(O)CC(C)CN(C)C(C)C(O)C1(C)O.O=C(O)CC(O)C(=O)O [L-malate anhydrate, Azithromycin L-Malate Anhydrate]",Salt form (hygroscopicity),[4],"Crystalline, hygroscopic^d)"
same,Increase of moisture content,[7],about 2.0%
Maleic acid,Salt form (hygroscopicity),[4],"Amorphous, hygroscopic"
"CC[C@H]1OC(=O)[C@H](C)[C@@H](O[C@H]2C[C@@](C)(OC)[C@@H](O)[C@H](C)O2)[C@H](C)[C@@H](O[C@@H]2O[C@H](C)C[C@H](N(C)C)[C@H]2O)[C@](C)(O)C[C@@H](C)CN(C)[C@H](C)[C@@H](O)[C@]1(C)O.O=C(O)CC(O)C(=O)O (racemic) [DL-malate anhydrate, Azithromycin DL-Malate Anhydrate]",Salt form (hygroscopicity),[4],"Crystalline, hygroscopic^e)"
same,Moisture content increased to,[7],≥ 6%
O=C(O)[C@H](O)[C@@H](O)C(=O)O [L-Tartaric acid],Salt form (hygroscopicity),[4],"Crystalline, hygroscopic"
Cl [Hydrochloric acid],Salt form (hygroscopicity),[4],"Amorphous, hygroscopic"

# — patent US20090318375A1, “Crystalline Azithromycin L-Malate Monohydrate and Pharmaceutical Composition Containing Same” (Hanmi Pharm Co., Ltd, priority 2003, published 2009)
